# Experiments:
# K562 = assay: Cytotoxicity against human K562 cells after 72 hrs by WST-8 assay; type: functional, cell-based; details: K562, 72 h
# U-937 = assay: Cytotoxicity against human U937 cells after 72 hrs by WST-8 assay; type: functional, cell-based; details: U-937, 72 h
# NCI-H661 = assay: Cytotoxicity against human NCI-H661 cells after 72 hrs by WST-8 assay; type: functional, cell-based; details: NCI-H661, 72 h
# HCT-116 = assay: Cytotoxicity against human HCT116 cells after 72 hrs by WST-8 assay; type: functional, cell-based; details: HCT-116, 72 h
# [1] = target: Tyrosine-protein kinase ABL1 (Homo sapiens) (UniProt P00519); details: at 10 µM
# Description: Inhibition of human recombinant ABL at 10 uM relative to control
# [2] = target: Epidermal growth factor receptor (Homo sapiens) (UniProt P00533); details: at 10 µM
# Description: Inhibition of EGFR (unknown origin) at 10 uM relative to control
# A549 = assay: Cytotoxicity against human A549 cells after 72 hrs by WST-8 assay; type: functional, cell-based; details: A549, 72 h
# [3] = target: Proto-oncogene tyrosine-protein kinase Src (Homo sapiens) (UniProt P12931); details: at 10 µM
# Description: Inhibition of human recombinant SRC at 10 uM relative to control
# DLD-1 = assay: Cytotoxicity against human DLD1 cells after 72 hrs by WST-8 assay; type: functional, cell-based; details: DLD-1, 72 h
# Epidermal growth factor receptor (Homo sapiens), sequence (P00533 whole entry): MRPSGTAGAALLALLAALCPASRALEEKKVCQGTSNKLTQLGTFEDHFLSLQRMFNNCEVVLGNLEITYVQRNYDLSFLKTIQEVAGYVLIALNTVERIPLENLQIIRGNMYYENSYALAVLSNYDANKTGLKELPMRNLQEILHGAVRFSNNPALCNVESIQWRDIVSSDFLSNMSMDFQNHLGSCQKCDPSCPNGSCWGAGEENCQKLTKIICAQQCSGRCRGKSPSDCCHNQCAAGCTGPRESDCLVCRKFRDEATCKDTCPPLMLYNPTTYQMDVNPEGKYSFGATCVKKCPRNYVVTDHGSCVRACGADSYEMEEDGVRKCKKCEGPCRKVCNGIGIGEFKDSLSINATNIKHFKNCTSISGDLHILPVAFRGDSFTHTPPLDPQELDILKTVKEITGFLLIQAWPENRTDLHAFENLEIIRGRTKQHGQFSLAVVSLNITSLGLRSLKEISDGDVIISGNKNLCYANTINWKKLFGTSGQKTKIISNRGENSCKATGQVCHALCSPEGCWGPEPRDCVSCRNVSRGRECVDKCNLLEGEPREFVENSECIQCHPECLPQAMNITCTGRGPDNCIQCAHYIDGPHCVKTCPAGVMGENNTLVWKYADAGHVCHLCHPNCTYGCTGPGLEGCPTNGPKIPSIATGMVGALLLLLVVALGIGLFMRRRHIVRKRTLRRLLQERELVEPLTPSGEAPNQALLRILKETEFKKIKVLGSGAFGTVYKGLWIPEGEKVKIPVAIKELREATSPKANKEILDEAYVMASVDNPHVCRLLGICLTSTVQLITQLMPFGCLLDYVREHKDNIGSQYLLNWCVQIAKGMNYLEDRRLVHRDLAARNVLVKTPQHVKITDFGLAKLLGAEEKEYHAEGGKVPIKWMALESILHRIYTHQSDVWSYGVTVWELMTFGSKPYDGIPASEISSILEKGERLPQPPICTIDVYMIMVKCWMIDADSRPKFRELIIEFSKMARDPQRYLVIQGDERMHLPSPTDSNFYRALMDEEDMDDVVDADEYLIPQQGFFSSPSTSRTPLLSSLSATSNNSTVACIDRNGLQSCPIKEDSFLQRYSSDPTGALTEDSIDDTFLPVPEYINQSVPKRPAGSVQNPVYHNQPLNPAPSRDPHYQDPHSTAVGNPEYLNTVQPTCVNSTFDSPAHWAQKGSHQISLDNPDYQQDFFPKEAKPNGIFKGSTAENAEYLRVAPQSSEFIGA
# Proto-oncogene tyrosine-protein kinase Src (Homo sapiens), sequence (P12931 2-536 limits assumed): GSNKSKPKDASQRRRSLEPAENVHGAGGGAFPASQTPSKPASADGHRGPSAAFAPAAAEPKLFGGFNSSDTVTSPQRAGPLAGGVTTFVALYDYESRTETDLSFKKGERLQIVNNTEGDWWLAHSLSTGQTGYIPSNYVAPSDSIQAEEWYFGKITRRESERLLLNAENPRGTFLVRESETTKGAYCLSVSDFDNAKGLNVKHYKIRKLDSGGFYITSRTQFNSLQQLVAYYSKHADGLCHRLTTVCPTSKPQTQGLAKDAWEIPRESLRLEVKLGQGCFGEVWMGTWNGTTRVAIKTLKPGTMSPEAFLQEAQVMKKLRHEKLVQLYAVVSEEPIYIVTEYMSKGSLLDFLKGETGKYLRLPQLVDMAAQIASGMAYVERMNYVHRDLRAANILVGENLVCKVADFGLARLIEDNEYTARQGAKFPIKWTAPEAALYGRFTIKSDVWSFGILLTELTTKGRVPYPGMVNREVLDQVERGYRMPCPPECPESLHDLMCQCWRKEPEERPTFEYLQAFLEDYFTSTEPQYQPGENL
# Tyrosine-protein kinase ABL1 (Homo sapiens), sequence (P00519 whole entry): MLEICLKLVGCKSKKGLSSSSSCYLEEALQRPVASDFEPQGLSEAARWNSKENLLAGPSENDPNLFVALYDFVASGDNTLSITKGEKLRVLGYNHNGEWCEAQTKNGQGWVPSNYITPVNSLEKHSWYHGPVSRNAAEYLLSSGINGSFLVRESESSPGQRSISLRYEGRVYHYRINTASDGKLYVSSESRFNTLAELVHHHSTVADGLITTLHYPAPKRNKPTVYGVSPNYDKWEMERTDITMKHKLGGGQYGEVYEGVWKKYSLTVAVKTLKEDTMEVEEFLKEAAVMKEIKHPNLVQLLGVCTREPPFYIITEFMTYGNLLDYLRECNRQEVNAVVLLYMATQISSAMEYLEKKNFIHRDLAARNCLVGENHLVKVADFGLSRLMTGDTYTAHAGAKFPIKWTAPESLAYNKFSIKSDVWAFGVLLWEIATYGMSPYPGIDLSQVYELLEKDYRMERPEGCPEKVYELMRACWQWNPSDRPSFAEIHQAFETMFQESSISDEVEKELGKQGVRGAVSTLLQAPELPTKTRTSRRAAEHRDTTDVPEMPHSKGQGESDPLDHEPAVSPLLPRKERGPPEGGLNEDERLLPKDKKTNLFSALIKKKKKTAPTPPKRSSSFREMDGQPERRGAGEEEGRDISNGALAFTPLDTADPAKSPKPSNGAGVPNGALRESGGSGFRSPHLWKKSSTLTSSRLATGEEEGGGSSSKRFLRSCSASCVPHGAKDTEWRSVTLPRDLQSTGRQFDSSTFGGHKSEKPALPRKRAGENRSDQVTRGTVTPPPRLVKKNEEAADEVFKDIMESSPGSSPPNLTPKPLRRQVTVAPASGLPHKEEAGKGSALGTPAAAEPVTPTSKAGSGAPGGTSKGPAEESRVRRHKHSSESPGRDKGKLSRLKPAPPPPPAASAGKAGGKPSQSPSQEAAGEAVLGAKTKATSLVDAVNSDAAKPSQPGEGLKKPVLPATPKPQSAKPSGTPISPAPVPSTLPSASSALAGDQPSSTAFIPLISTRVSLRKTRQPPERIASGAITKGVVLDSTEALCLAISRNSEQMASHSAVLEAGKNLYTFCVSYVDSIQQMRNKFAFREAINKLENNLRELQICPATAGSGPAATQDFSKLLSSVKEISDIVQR
SMILES,IC50 (K562) [µM],IC50 (U-937) [µM],IC50 (NCI-H661) [µM],IC50 (HCT-116) [µM],inhibition [1] [%],inhibition [2] [%],IC50 (A549) [µM],inhibition [3] [%],IC50 (DLD-1) [µM]
COc1cc2c(Nc3nc4ccc(C(=O)Nc5c(C)cccc5C)cc4s3)ncnc2cc1OCCCN1CCC(C)CC1,15.8,11.2,72.3,> 100,54.2,13.3,89.7,56.5,> 100
COc1cc2c(Nc3nc4ccc(C(=O)Nc5c(C)cccc5Cl)cc4s3)ncnc2cc1OCCCN1CCOCC1,16.4,22.6,> 100,> 100,43.7,10.4,75.2,34.3,> 100
COc1cc2c(Nc3nc4ccc(C(=O)Nc5c(C)cccc5C)cc4s3)ncnc2cc1OCCCN1CCCC1,15.7,18.9,> 100,> 100,34.3,21.2,83.8,39.9,> 100
COc1cc2c(Nc3nc4ccc(C(=O)Nc5c(C)cc(C)cc5C)cc4s3)ncnc2cc1OCCCN1CCC(C)CC1,5.9,5.6,7.7,6.9,68.2,36.3,5.4,78.6,7
COc1cc2c(Nc3nc4ccc(C(=O)Nc5c(C)cccc5Cl)cc4s3)ncnc2cc1OCCCN1CCC(C)CC1,8.3,9.2,7.9,9.1,56.2,23.7,9.7,67.4,11.3
COc1cc2c(Nc3nc4ccc(C(=O)Nc5c(C)cccc5Cl)cc4s3)ncnc2cc1OCCCN1CCCC1,13.3,19.9,45.5,63.8,78.7,15.6,38.6,55.7,60.7
COc1cc2c(Nc3nc4ccc(C(=O)Nc5c(C)cc(C)cc5C)cc4s3)ncnc2cc1OCCCN1CCOCC1,20,24.2,18.4,5.6,76.5,45.1,16.3,80.6,5.8
CCN(CC)CCCOc1cc2ncnc(Nc3nc4ccc(C(=O)Nc5c(C)cccc5C)cc4s3)c2cc1OC,28.4,23.7,66.5,> 100,50,10.5,> 100,53.6,> 100
COc1cc2c(Nc3nc4ccc(C(=O)Nc5c(C)cccc5Cl)cc4s3)ncnc2cc1OCCCN1CCCCC1C (configuration not stated),6.8,7,5.3,7.2,71.1,53.6,6.7,78.9,6.7
Cc1nc(Nc2ncc(C(=O)Nc3c(C)cccc3Cl)s2)cc(N2CCN(CCO)CC2)n1 [DASATINIB],11.9,12.2,7.8,5.3,–,–,8.2,–,4.6
COc1cc2c(Nc3nc4ccc(C(=O)Nc5c(C)cccc5Cl)cc4s3)ncnc2cc1OCCCN1CCCCC1,12.5,8.6,13.8,23.4,49.9,28.7,12.8,83.3,14.7
COc1cc2c(Nc3nc4ccc(C(=O)Nc5c(C)cccc5C)cc4s3)ncnc2cc1OCCCN1CCCCC1,13.7,14.7,> 100,> 100,39,17.3,> 100,43.4,> 100
COc1cc2c(Nc3nc4ccc(C(=O)Nc5c(C)cccc5C)cc4s3)ncnc2cc1OCCCN1CCOCC1,> 100,19.2,> 100,> 100,41.7,9.9,> 100,28.7,> 100
CCN(CC)CCCOc1cc2ncnc(Nc3nc4ccc(C(=O)Nc5c(C)cccc5Cl)cc4s3)c2cc1OC,9.6,7.3,11.2,13.2,67.1,46.8,10.6,68.2,11.7
COc1cc2c(Nc3nc4ccc(C(=O)Nc5c(C)cccc5C)cc4s3)ncnc2cc1OCCCN1CCCCC1C (configuration not stated),12.3,10.8,84.4,> 100,49.2,25.4,75.7,49,> 100
CCN(CC)CCCOc1cc2ncnc(Nc3nc4ccc(C(=O)Nc5c(C)cc(C)cc5C)cc4s3)c2cc1OC,6.8,4.3,7.3,7.5,76.3,25.4,5.7,65.3,6.8
COc1cc2c(Nc3nc4ccc(C(=O)Nc5c(C)cc(C)cc5C)cc4s3)ncnc2cc1OCCCN1CCCCC1C (configuration not stated),3.5,3.6,8.8,5.6,–,65.8,5.8,89.2,5.7
COc1cc2c(Nc3nc4ccc(C(=O)Nc5c(C)cc(C)cc5C)cc4s3)ncnc2cc1OCCCN1CCCC1,4.3,4.6,9.6,5.8,82.3,48.7,8.9,91.8,5.9
COc1cc2c(Nc3nc4ccc(C(=O)Nc5c(C)cc(C)cc5C)cc4s3)ncnc2cc1OCCCN1CCCCC1,9.3,12.2,10,16.9,81.6,37.9,10.3,69.7,24.5

# From ChEMBL document CHEMBL2375301, “Design and synthesis of novel 4-benzothiazole amino quinazolines Dasatinib derivatives as potential anti-tumor agents” (Eur J Med Chem, 2013)
